Columns and labels:
Assay in all cases: Growth on urinary catheter segments coated with TDMAC plus composition (roll plate)
Pseudomonas aeruginosa = assay type: cell-based
Experimental: (§1) Clear vinyl catheter segments (3 cm sections of tubing) that had been preheated (incubated in sterile water at 65° C. overnight) were coated in 5% TDMAC in ethanol for an hour at room temperature. The catheter segments were vigorously washed with sterile water and air-dried. The segments were then immersed in ethanol and coating solution (1000 μg OT+100 μg PS+100 μg EDTA/ml of water) for 2 hours at −20° C. In addition, a few catheter segments were immersed in coating solution alone for 2 hours at −20° C. All the segments were air dried and immersed in a tryptic soy broth culture of Pseudomonas aeruginosa, Klebsiella pneumoniae and Staphylococcus epidermidis for 3 hours at 37° C. The catheter segments were washed 3 times in 3 changes of sterile saline and rolled on tryptic soy agar plates. The plates were incubated overnight at 37° C. and the colonies were counted.

Klebsiella pneumoniae = assay type: cell-based
Experimental: as §1

Staph. epidermidis = assay type: cell-based, Staphylococcus epidermidis
Experimental: as §1

[1] = coated vinyl catheter segments vs uncoated control, coating at −20° C.
[2] = coated vinyl catheter segments, coating 2 hours at −20° C., 3 hours in culture at 37° C., CFU per millimeter of catheter tubing

CCCCCCCCCCCC[N+](C)(CCCCCCCCCCCC)CCCCCCCCCCCC.[Cl-] [TDMAC, Tridodecyl Methyl Ammonium Chloride]
% Inhibition (Pseudomonas aeruginosa; [1]): 12% | Viable Counts (CFU/mM) (Pseudomonas aeruginosa; [2]): 18.8 ± 4.6 CFU/mM | % Inhibition (Klebsiella pneumoniae; [1]): 0% | Viable Counts (CFU/mM) (Klebsiella pneumoniae; [2]): 4.3 ± 1.3 CFU/mM | % Inhibition (Staph. epidermidis; [1]): 0% | Viable Counts (CFU/mM) (Staph. epidermidis; [2]): 20.4 ± 7.7 CFU/mM
